Blank lines part the entries; values can stand above or below the compound they belong to. Activity calls are given as the source filed them.
Experiments:
[1] = molecular target: T1, Rac GTPase-activating protein 1 (Homo sapiens, UniProt Q9H0H5); assay: MgcRacGAP GTPase-activating activity inhibitors, confirmation, biochemical, ADP Hunter fluorescence, primary and confirmatory (AID 624330); type: functional
T1 sequence (Q9H0H5 whole entry): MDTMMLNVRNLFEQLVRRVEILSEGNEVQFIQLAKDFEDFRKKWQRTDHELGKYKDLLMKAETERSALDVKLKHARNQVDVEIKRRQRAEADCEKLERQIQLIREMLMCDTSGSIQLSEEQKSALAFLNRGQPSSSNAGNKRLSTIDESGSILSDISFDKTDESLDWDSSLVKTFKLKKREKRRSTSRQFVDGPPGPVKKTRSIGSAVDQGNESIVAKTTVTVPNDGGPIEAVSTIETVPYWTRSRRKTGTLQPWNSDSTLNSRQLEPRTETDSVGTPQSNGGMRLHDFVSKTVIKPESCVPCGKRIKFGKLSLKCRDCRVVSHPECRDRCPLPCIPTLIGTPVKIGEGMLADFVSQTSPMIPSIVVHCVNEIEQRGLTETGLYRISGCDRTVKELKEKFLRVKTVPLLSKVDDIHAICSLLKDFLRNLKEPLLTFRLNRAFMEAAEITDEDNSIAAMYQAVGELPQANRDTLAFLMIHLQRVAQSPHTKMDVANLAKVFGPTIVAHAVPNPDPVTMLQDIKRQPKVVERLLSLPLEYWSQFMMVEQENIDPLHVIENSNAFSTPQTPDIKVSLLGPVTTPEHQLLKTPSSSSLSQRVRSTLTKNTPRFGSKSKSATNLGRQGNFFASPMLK

[2] = molecular target: T2, DNA repair protein RAD52 homolog (Homo sapiens, UniProt P43351); type: functional, biochemical
T2 sequence (P43351 whole entry): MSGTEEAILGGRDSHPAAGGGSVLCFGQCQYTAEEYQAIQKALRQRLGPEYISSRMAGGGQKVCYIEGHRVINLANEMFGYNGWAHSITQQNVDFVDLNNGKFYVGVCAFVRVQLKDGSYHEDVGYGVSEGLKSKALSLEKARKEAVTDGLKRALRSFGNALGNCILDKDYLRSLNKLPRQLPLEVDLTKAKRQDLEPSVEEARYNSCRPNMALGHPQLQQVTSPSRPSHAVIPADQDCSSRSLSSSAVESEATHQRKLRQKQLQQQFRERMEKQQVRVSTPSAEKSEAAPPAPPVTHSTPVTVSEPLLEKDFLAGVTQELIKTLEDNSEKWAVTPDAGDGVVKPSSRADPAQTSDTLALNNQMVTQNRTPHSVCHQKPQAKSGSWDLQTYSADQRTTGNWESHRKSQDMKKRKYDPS

Fatty acid synthase [3] = molecular target: T3, Fatty acid synthase (Homo sapiens, UniProt P49327); assay: FAS thioesterase domain inhibitors, dose response, biochemical, endpoint fluorescence intensity, uHTS hits (AID 624327); type: functional;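 note: fluorescence from hydrolysis of an O-methyl fluorescein acyl ester substrate by the enzyme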
Fatty acid synthase [4] = molecular target: T3, Fatty acid synthase; assay: FAS thioesterase domain inhibitors, dose response, biochemical, kinetic fluorescence intensity (AID 624326); type: functional;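 note: rate of fluorescence rise from hydrolysis of a fluorogenic O-methyl fluorescein ester substrate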
Kallikrein-7 = Kallikrein-7 (Homo sapiens, UniProt P49862); assay: Fluorescence Intensity-based biochemical primary high throughput dose response assay to identify activators of kallikrein-7 (K7) zymogen.
Prothrombin = Prothrombin (Homo sapiens, UniProt P00734); assay: Thrombin 1536 HTS Dose Response Confirmation. [Related pubchem assays: 1046 (Thrombin 1536 HTS; hits were confirmed in this assay)]; type: functional
[5] = HEK293T cytotoxicity, dose response, cytotoxicity control for miR-122 modulator project, cell-based, inhibitor set, cherry-pick, set 2 (AID 720697); type: functional
cells = type: functional, cell-based
[6] = molecular target: T4, Nuclear receptor subfamily 0 group B member 1 (Homo sapiens, UniProt P51843); type: functional, cell-based;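 note: HEK293T cells transfected with SF-1 and DAX-1 plus StAR promoter luciferase reporter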
T4 sequence (P51843 whole entry): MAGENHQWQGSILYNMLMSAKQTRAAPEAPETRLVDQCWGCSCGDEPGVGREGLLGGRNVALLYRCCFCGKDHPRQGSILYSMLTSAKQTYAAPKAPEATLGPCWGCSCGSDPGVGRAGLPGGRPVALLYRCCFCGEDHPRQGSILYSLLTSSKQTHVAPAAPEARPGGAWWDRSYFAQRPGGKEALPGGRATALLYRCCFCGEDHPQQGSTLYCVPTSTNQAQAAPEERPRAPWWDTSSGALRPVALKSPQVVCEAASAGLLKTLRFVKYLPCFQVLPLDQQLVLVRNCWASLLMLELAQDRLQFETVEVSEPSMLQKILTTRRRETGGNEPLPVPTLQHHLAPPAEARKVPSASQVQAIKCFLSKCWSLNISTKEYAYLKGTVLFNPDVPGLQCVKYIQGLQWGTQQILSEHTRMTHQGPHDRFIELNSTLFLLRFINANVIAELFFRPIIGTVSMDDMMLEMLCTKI

Chain of Kallikrein-7 (P49862 whole entry): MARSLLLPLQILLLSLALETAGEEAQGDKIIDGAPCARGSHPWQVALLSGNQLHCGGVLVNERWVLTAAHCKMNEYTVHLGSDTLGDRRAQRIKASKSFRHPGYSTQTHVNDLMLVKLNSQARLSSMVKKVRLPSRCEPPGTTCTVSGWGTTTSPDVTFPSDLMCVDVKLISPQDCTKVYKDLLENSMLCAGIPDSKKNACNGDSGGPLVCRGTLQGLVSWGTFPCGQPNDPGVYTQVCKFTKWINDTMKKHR
T3 sequence (P49327 whole entry, the tested form may be a part): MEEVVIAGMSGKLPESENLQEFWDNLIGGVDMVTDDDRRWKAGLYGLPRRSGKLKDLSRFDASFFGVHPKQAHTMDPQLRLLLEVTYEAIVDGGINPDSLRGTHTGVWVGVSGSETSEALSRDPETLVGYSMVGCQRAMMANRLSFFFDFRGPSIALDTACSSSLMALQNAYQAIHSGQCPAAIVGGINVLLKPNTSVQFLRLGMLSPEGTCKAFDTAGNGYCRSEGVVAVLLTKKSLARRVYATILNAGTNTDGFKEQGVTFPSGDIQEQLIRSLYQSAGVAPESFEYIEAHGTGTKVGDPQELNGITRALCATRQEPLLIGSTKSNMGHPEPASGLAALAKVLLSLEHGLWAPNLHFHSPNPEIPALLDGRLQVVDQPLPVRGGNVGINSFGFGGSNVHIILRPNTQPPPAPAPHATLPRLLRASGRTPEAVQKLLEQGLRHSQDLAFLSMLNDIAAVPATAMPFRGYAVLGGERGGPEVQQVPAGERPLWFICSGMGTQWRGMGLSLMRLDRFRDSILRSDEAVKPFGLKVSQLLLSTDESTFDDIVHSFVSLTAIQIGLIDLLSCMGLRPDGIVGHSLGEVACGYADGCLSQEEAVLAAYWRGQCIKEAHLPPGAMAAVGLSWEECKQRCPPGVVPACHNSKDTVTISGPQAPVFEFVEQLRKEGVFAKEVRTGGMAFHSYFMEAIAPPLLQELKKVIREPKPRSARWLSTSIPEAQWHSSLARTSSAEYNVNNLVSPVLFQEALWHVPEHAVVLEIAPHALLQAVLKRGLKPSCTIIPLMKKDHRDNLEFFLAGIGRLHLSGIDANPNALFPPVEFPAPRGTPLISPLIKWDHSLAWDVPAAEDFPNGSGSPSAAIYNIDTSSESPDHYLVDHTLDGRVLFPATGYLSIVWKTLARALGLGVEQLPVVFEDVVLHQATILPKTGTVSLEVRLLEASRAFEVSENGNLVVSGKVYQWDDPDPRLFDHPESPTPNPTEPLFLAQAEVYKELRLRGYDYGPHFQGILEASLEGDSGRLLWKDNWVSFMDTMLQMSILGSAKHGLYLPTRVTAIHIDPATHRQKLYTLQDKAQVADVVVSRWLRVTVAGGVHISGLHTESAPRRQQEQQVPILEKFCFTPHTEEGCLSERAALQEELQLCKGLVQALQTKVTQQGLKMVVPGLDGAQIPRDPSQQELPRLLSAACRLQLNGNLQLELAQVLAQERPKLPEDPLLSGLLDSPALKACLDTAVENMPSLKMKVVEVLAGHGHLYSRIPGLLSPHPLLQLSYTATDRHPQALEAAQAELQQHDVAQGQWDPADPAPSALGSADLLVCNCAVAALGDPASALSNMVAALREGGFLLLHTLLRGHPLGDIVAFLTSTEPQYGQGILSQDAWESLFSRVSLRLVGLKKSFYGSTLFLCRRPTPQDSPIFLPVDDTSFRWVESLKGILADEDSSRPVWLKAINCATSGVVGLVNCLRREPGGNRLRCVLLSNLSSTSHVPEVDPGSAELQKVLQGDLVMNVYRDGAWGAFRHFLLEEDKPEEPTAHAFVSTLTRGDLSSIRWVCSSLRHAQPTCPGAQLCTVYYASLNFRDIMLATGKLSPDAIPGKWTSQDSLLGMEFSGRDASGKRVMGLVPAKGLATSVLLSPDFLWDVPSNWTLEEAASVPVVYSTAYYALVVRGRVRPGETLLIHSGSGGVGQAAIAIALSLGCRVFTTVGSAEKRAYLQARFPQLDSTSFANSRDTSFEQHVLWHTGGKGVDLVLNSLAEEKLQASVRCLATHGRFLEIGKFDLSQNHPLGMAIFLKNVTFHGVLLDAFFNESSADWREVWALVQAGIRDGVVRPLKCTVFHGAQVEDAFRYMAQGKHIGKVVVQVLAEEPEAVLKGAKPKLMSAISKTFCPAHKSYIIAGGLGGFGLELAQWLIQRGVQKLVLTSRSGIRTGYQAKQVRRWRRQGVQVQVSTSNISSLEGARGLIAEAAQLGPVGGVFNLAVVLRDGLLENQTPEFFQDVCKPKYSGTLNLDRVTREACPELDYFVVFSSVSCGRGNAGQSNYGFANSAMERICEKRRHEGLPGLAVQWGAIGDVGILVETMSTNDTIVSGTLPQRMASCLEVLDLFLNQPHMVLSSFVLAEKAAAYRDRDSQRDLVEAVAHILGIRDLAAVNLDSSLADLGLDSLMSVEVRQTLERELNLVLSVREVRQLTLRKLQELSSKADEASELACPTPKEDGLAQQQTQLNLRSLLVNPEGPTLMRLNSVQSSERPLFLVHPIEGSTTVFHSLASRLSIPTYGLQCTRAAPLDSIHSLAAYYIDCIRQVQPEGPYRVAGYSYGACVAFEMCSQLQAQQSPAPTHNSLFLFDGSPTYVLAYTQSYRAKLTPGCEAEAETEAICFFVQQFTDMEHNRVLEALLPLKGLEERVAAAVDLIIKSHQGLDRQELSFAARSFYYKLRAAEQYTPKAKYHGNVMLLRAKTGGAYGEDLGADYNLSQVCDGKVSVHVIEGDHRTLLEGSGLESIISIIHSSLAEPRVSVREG

IC50 [1]: 64.3 µM (active)
AC50 [2]: 4.32 µM (active)
SMILES: CN1CCN(CCCNCc2cn(CCC#N)c3ccccc23)CC1

IC50 (Fatty acid synthase [3]): 15.8 µM (active)
IC50 (Fatty acid synthase [4]): 13.2 µM (active)
SMILES: Cc1cc(C(C)(C)C)cc(C)c1COC(=O)CN1C(=O)NC2(CCCC2)C1=O

EC50 (Kallikrein-7): 20.8 µM (inactive)
SMILES: COC(=O)c1ccc(C2C(C#N)=C(C)N=C3CC(C)(C)CC(O)=C32)cc1 (stereo unspecified)

IC50 (Prothrombin): > 50 µM (not active)
SMILES: CCC(C)NCCOc1cc(C)cc(C)c1C (stereo unspecified)

EC50 (Kallikrein-7): > 69.5 µM (inactive)
SMILES: N#Cc1c(NC(=O)COC(=O)c2nccnc2N)sc2c1CCCC2

SMILES: c1ccc(CCCNCCCn2cnc3c(OCc4ccccc4)ncnc32)cc1
AC50 [5]: 7.5 µM (active)

SMILES: COc1ccccc1C=C1CCc2ccccc2C1=O
IC50 (cells): > 67.5 µM (inactive)
IC50 [6]: > 67.5 µM (inactive)

SMILES: COc1ccccc1-c1nnc2n1N=C(c1ccc3c(c1)OCO3)CS2
IC50 (cells): > 67.6 µM (inactive)
IC50 [6]: > 67.6 µM (inactive)

SMILES: CO[C@@H]1CN(C)C(=O)c2cc(NC(=O)c3cccc(Oc4ccccc4)c3)ccc2OC[C@H](C)NC[C@@H]1C
AC50 [5]: 15.1 µM (active)

SMILES: COc1ccc2c(c1)CCC/C2=N\NC(=O)c1ccoc1C
IC50 (cells): > 67.5 µM (inactive)
IC50 [6]: > 67.5 µM (inactive)

SMILES: CCOc1cc(-c2nccc3cc(OC)c(OC)cc23)cc(OCC)c1OCC [OCTAVERINE]
AC50 [5]: 1.89 µM (active)
